In patent US20200261534A1, “NEW TREATMENTS OF MULTIPLE MYELOMA” (priority 2017, published 2020):
Read-outs that look alike come from different tables or passages of the source. Starred links: 1 amine or outer side, 2 acyl side, 3 side chain; linkers in the order of their positions; H or OH if unused. Positions of bridges follow the written chain, without caps; N, C: chain ends. Non-standard residues stand in square brackets, D forms with d. Residues, ends and D or L forms follow the SMILES beside them. ξ: configuration not given here. ξαMeNle(6-ylidene) = CC(CCCC=[*:3])(N[*:1])C(=O)[*:2]; X1 = CC(CCCCCCC=[*:3])(N[*:1])C(=O)[*:2]; Octanediyl(1,8) = C(CCCC[*:2])CCC[*:1]; ξC = NC(CS)C(=O)O

Key:
Format in all cases: cell-based
[1] = test system: RPMI-8266, lymphoblast (myeloma); assay: MTT viability assay, RPMI-8266
Procedure: RPMI-8266, lymphoblast (myeloma), ATCC® CCL155™
(§1) All cell lines were cultured in incubator at 37° C. in RPMI-1640 (Sigma R8758) medium with 10% of fetal bovine serum inactivated (FBS) and 2 mM glutamine (Sigma G7513). During the amplification step cells were centrifuged and transferred into the culturing medium. Cells were counted in a Neubauer chamber after labelling with Tripan-Blue.
(§2) Cells were seeded at a density of 10000 cells/well in 100 μl of medium in 96 well plates. After 24 h, the compounds to be tested were added to calculate the dose/response curve at the starting concentration of 100 μM with serial dilutions (1:1). Controls are the untreated cells. Each experiment was performed in triplicate.
(§3) Cells were incubated with the peptidomimetic compound (S09) at the indicated concentrations during 24-72 h in incubator under CO2 atmosphere at 37° C. Then, cell viability was measured by means of MTT (3-(4,5-dimethylthiazol-2-yl)-2,5-diphenyltetrazolium bromide) assay. Stock solution of MTT (475989 Calbiochem) was 5 mg/ml in PBS. 1×.10 μl/well of MTT solution were added and the plate was incubated for 3-4 hr. The medium was discarded and 100 μl of extracting buffer (PBS 1×, 15% SDS, 50% […] N,N-Dimethylformamide, pH 4.7) were added to each well. Plates were incubated for 16 h at room temperature under orbital shaking. Absorbance at 570 nm was finally measured. As negative control (experiment noise) 3 wells were treated with 20 μl/well of a solution of SDS 10% in H2O.
(§4) Data analysis was performed calculating the percentage of cell viability normalized vs. the values of negative control, which was considered equal to 100%. The dose/response curve was fitted through the sigmoidal equation dose-response (variable slope) and the IC50 values were calculated as follow:
(§5) Y=Bottom+(Top−Bottom)/(1+10^{[(LogIC50−X)*HillSlope]},
(§6) All cell lines were cultured in incubator at 37° C. in RPMI-1640 (Sigma R8758) medium with 10% of fetal bovine serum inactivated (FBS) and 2 mM glutamine (Sigma G7513).
as §2, with “of 10,000” for “of 10000”, “of 40” for “of 100”
as §3, with “compounds” for “compound (S09)”

[2] = test system: U266-LR7, lymphoblast (myeloma), selected for resistance to Melphalan
Procedure: U266-LR7, lymphoblast (myeloma), selected for resistance to Melphalan (Alvarez-Fernández et al. Clin Cancer Res. 2013 May 15; 19(10):2677-87).
as §1, §2, §3, §4, §5
U266-LR7, lymphoblast (myeloma), selected for resistance to Melphalan (Alvarez-Fernandez et al. Clin Cancer Res. 2013 May 15; 19(10):2677-87).
as §6
as §2, with “of 10,000” for “of 10000”, “of 40” for “of 100”
as §3, with “compounds” for “compound (S09)”

[3] = test system: HL-60, promyeloblast (acute myelocytic leukemia, AML); assay: MTT viability assay, HL-60
Procedure: HL-60, promyeloblast (acute myelocytic leukemia, AML), ECACC: 98070106 […] During the amplification step and the assays adherent cells were rinsed with DPBS (Dulbecco's Phosphate Buffered Saline, Sigma D1283) three times and afterward treated for 5 minutes with trypsin ([…]) (Gibco-BRL, 15400054) in solution of DPBS at 37° C., and, once detached, transferred in the culturing medium. No-adherent cells were centrifuged and transferred in the culturing medium. Cells were counted in a Neubauer chamber after labelling with Tripan-Blue. […] Cells were seeded at a density of 10000 cells/well in 100 μl of medium in 96 well plates. […] Controls are the untreated cells. Each experiment was performed in triplicate. Cells were incubated with the compounds at the indicated concentrations during 24-72 h in incubator under CO2 atmosphere at 37° C. […] Stock solution of MTT (475989 Calbiochem) was 5 mg/ml in PBS. 1×.10 μl/well of MTT solution were added and the plate was incubated for 3-4 hr. […] Plates were incubated for 16 h at room temperature under orbital shaking. Absorbance at 570 nm was finally measured. […] The dose/response curve was fitted through the sigmoidal equation dose-response (variable slope) and the IC50 values were calculated as follow: Y=Bottom+(Top−Bottom)/(1+10^{[(LogIC50−X)*HillSlope]},

[4] = U266LR7, 24 hr, Table 13, read-out: IC50 after 24 hr values
[5] = U266LR7, 72 hr, Table 14, read-out: IC50 after 72 hr values

Structure (SMILES)	IC50 ([1]; 24 h)	IC50 ([1]; 72 h)	IC50 [2, 4]	IC50 [2, 5]	IC50 ([1]; RPMI, MTT, 24-72 h, Table 7, read-out: IC50 values in μM for S09)	IC50 ([2]; U266LR7 (resistant to Melphalan), MTT, 24-72 h, Table 7, read-out: IC50 values in μM for S09)	IC50 ([3]; HL-60, MTT, incubation 24-72 h, Table 3, read-out: IC50 values)	IC50 ([3]; HL-60, same protocol as Example 2, Table 6, read-out: Compound (IC50))	IC50 [3]
CC[C@H](C)[C@H](NC(=O)[C@H](Cc1ccc(O)cc1)NC(=O)[C@H](C)NC(=O)C1CSCCCCCCCCSCC(NC(=O)[C@H](CCCCN)NC(=O)[C@@H]2CCCN2C(=O)[C@H](C)N)C(=O)N[C@@H](C(C)C)C(=O)N[C@@H]([C@@H](C)CC)C(=O)N[C@@H](CC(C)C)C(=O)N[C@@H](CCCCN)C(=O)N[C@@H](CCCCN)C(=O)N[C@@H](C)C(=O)N1)C(=O)N[C@@H](CC(C)C)C(=O)N[C@@H](CO)C(=O)O (stereo partly shown) [IDP-P1708160] (H-APK[ξC]VILKKA[ξC]AYILS-OH; linker 4-11 via Octanediyl(1,8); N-terminus and C-terminus assumed)	15 µM	15 µM	2.5 µM	2.5 µM					
CC[C@H](C)[C@H](NC(=O)[C@H](Cc1ccc(O)cc1)NC(=O)[C@H](C)NC(=O)C1(C)CCCC=CCCCCCCC(C)(NC(=O)[C@H](CCCCN)NC(=O)[C@@H]2CCCN2C(=O)[C@H](C)N)C(=O)N[C@@H](C(C)C)C(=O)N[C@@H]([C@@H](C)CC)C(=O)N[C@@H](CC(C)C)C(=O)N[C@@H](CCCCN)C(=O)N[C@@H](CCCCN)C(=O)N[C@@H](C)C(=O)N1)C(=O)N[C@@H](CC(C)C)C(=O)N[C@@H](CO)C(=O)O (stereo partly shown) [S09, APKXVILKKAXAYILS—OH] (H-APK[X1]VILKKA[ξαMeNle(6-ylidene)]AYILS-OH; staple 4-11; N-terminus assumed)					7.4 µM	9.7 µM	3.5 ± 0.2 µM	3.5 ± 0.2 µM	
CC[C@H](C)[C@H](NC(=O)[C@H](Cc1ccc(O)cc1)NC(=O)[C@H](C)NC(=O)C1(C)CCCC=CCCCCCCC(C)(NC(=O)[C@H](CCCCN)NC(=O)[C@@H]2CCCN2C(=O)[C@H](C)N)C(=O)N[C@@H](C(C)C)C(=O)N[C@@H]([C@@H](C)CC)C(=O)N[C@@H](Cc2ccccc2)C(=O)N[C@@H](CCCCN)C(=O)N[C@@H](CCCCN)C(=O)N[C@@H](C)C(=O)N1)C(=O)N[C@@H](CC(C)C)C(=O)N[C@@H](CO)C(=O)O (stereo partly shown) [S14, APKXVIFKKAXAYILS—OH] (H-APK[X1]VIFKKA[ξαMeNle(6-ylidene)]AYILS-OH; staple 4-11; N-terminus assumed)	10 µM	10 µM	10 µM	10 µM					7.8 ± 0.4 µM
